Test results: patent US20210070748A1, “INHIBITORS OF BRUTONS TYROSINE KINASE” (Pharmacyclics LLC, priority 2015, published 2021)

Key:
Format in all cases: biochemical
BTK-WT = target: T1, BTK-WT (Homo sapiens, UniProt Q06187); experiment: Btk in vitro inhibitory activity (one of Method A TR-FRET, Method B electrophoretic mobility shift, Method C radiometric filter binding); conditions: D-compounds panel data; read-out: IC50 BTK-WT
T1 construct: purified from insect cells as a full-length construct containing an N-terminal 6X-His tag; His6 (N); made in house; host or cells: insect cells (baculovirus Sf21 in Method B)
T1 sequence (Q06187 whole entry): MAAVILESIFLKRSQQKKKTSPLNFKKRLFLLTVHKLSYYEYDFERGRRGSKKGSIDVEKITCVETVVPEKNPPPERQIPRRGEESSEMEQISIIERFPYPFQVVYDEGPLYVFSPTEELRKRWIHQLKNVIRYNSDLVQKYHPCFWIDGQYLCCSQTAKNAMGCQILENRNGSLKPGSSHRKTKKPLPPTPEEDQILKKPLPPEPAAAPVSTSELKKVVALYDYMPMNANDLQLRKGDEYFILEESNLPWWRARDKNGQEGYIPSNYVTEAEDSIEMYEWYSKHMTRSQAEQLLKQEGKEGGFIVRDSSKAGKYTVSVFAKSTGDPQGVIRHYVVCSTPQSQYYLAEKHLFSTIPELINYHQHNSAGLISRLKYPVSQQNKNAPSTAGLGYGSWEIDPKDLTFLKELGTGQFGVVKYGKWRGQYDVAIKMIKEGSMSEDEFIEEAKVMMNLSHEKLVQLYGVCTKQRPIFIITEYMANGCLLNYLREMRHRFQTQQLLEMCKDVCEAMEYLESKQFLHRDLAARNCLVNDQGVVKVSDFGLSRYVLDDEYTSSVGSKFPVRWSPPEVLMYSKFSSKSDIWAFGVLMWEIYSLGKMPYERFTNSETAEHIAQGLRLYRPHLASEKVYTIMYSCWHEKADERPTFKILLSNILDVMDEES

LCK = LCK (Homo sapiens, UniProt P06239); experiment: Inhibition of a panel of kinases, in vitro HotSpot kinase assay: LCK; conditions: D-compounds panel data; 1 μM ATP; read-out: IC50 LCK
LCK, sequence (P06239 whole entry): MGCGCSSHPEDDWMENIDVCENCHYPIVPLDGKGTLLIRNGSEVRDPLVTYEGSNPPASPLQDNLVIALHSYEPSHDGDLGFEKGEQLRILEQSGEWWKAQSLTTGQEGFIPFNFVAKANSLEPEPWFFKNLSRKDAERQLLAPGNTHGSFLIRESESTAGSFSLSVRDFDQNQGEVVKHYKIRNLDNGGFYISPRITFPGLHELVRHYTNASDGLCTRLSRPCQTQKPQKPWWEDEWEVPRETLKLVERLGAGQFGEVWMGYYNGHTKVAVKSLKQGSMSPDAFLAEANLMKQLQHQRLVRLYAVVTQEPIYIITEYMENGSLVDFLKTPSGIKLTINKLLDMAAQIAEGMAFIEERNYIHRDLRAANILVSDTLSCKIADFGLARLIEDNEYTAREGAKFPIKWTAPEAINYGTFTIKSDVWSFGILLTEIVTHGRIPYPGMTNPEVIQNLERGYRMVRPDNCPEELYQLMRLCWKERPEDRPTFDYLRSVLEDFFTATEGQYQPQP

ITK = target: T2, ITK (Homo sapiens, UniProt Q08881); experiment: Inhibition of a panel of kinases, in vitro HotSpot kinase assay: ITK; conditions: D-compounds panel data; 1 μM ATP
T2 sequence (Q08881 1-620): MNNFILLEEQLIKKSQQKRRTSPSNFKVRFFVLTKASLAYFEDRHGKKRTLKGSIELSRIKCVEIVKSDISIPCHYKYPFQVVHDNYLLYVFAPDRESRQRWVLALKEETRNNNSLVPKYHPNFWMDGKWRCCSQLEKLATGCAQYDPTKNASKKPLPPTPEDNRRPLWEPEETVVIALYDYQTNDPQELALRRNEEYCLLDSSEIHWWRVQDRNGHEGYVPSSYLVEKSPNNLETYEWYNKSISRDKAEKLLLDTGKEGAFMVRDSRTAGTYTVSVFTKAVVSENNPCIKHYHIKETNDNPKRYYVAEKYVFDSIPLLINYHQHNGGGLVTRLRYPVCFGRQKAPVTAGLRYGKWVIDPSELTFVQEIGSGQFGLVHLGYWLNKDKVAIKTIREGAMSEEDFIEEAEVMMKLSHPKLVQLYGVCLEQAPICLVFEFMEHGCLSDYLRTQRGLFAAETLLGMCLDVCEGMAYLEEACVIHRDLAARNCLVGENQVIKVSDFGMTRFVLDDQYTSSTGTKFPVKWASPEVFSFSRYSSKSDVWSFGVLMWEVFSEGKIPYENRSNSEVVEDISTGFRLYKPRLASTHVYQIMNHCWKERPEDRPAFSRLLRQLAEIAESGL
Method: (§1) The degree of inhibition of a panel of kinases is determined using the in vitro HotSpot kinase assay (purified enzymes, ^33P-ATP, an appropriate substrate and 1 μM ATP).

SRC = SRC (Homo sapiens, UniProt P12931); experiment: Inhibition of a panel of kinases, in vitro HotSpot kinase assay: SRC; conditions: D-compounds panel data; 1 μM ATP
SRC, sequence (P12931 whole entry): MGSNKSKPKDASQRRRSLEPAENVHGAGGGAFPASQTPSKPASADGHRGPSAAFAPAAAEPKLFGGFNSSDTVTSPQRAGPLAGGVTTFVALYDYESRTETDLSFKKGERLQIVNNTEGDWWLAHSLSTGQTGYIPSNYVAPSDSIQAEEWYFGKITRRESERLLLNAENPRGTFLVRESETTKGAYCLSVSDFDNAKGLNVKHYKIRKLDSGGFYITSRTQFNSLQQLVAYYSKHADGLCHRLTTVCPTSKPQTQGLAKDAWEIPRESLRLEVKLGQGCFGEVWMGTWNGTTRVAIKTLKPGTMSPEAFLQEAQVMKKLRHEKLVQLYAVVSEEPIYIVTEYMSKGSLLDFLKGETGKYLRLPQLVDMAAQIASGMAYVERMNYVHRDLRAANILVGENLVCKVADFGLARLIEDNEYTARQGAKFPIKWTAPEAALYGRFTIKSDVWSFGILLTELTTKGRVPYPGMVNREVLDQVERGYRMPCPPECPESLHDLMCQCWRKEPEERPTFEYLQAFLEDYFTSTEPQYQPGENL
Method: as §1

TEC = target: T3, TEC (Homo sapiens, UniProt P42680); experiment: Inhibition of a panel of kinases, in vitro HotSpot kinase assay: TEC; conditions: D-compounds panel data; 1 μM ATP
T3 sequence (P42680 1-631): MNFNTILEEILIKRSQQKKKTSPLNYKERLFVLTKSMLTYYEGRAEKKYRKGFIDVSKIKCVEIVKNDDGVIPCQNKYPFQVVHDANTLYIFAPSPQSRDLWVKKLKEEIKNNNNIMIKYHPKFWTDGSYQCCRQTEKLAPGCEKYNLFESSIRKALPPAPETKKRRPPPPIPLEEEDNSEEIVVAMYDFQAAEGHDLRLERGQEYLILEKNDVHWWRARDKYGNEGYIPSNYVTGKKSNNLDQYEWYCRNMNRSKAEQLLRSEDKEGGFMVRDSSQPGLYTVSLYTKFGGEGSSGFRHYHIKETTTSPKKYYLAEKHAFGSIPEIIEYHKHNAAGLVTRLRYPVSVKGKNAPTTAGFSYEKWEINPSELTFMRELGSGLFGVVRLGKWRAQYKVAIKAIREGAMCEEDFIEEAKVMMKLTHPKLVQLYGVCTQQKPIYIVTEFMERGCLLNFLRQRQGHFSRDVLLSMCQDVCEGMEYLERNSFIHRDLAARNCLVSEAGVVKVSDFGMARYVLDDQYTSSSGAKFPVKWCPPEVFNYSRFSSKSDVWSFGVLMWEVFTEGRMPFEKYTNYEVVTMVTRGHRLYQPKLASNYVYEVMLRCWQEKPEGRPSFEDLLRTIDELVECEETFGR
Method: as §1

SMILES	IC50 (BTK-WT)	IC50 (LCK)	IC50 (ITK)	IC50 (SRC)	IC50 (TEC)
CN1CCN(C(=O)c2ccc(Nc3nc(N[C@H]4CC[C@@H](NC(=O)N(C)C)CC4)cnc3C(N)=O)cc2)CC1 [Example D-72, 3-{[4-(4-methylpiperazine-1-carbonyl)phenyl]amino}-5-{[(1s,4s)-4-[(dimethylcarbamoyl)amino]cyclohexyl]amino}pyrazine-2-carboxamide]	10 to 100 nM	10 to 100 nM	1000 to 10000 nM	100 to 1000 nM	1000 to 10000 nM
C[C@@H]1[C@H](NC(=O)c2ccc(C3CC3)cc2F)CCCN1c1cnc(C(N)=O)c(Nc2ccc(N3CCOCC3)cc2)n1 [Example D-73, 5-[(2R,3R)-3-(4-cyclopropyl-2-fluorobenzamido)-2-methylpiperidin-1-yl]-3-{[4-(morpholin-4-yl)phenyl]amino}pyrazine-2-carboxamide]	≤ 10 nM	1000 to 10000 nM	100 to 1000 nM	100 to 1000 nM	10 to 100 nM
Cc1cc(Nc2nc(N3C[C@H](NC(=O)N(C)C)CC[C@@H]3C)cnc2C(N)=O)sn1 [Example D-74, 5-[(2S,5R)-5-[(dimethylcarbamoyl)amino]-2-methylpiperidin-1-yl]-3-[(3-methyl-1,2-thiazol-5-yl)amino]pyrazine-2-carboxamide]	100 to 1000 nM	100 to 1000 nM	> 10000 nM	1000 to 10000 nM	1000 to 10000 nM
Cc1cc(Nc2nc(N3C[C@@H](NC(=O)N(C)C)CC[C@H]3C)cnc2C(N)=O)sn1 [Example D-75, 5-[(2R,5S)-5-[(dimethylcarbamoyl)amino]-2-methylpiperidin-1-yl]-3-[(3-methyl-1,2-thiazol-5-yl)amino]pyrazine-2-carboxamide]	10 to 100 nM	100 to 1000 nM	1000 to 10000 nM	100 to 1000 nM	100 to 1000 nM
Cc1cc(Nc2nc(N3C[C@@H](NC(=O)N(C)C)CC[C@@H]3C)cnc2C(N)=O)sn1 [Example D-76, 5-[(2S,5S)-5-[(dimethylcarbamoyl)amino]-2-methylpiperidin-1-yl]-3-[(3-methyl-1,2-thiazol-5-yl)amino]pyrazine-2-carboxamide]	100 to 1000 nM	> 10000 nM	> 10000 nM	1000 to 10000 nM	1000 to 10000 nM
Cc1cc(Nc2nc(N3C[C@H](NC(=O)N(C)C)CC[C@H]3C)cnc2C(N)=O)sn1 [Example D-77, 5-[(2R,5R)-5-[(dimethylcarbamoyl)amino]-2-methylpiperidin-1-yl]-3-[(3-methyl-1,2-thiazol-5-yl)amino]pyrazine-2-carboxamide]	100 to 1000 nM	1000 to 10000 nM	> 10000 nM	1000 to 10000 nM	1000 to 10000 nM
Cc1cc(Nc2nc(N3C[C@@H](NC(=O)c4ccc(C5CC5)cc4F)CC[C@@H]3C)cnc2C(N)=O)sn1 [Example D-78, 5-[(2S,5S)-5-(4-cyclopropyl-2-fluorobenzamido)-2-methylpiperidin-1-yl]-3-[(3-methyl-1,2-thiazol-5-yl)amino]pyrazine-2-carboxamide]	100 to 1000 nM	100 to 1000 nM	1000 to 10000 nM	100 to 1000 nM	1000 to 10000 nM
Cc1cc(Nc2nc(N3C[C@H](NC(=O)c4ccc(C5CC5)cc4F)CC[C@H]3C)cnc2C(N)=O)sn1 [Example D-79, 5-[(2R,5R)-5-(4-cyclopropyl-2-fluorobenzamido)-2-methylpiperidin-1-yl]-3-[(3-methyl-1,2-thiazol-5-yl)amino]pyrazine-2-carboxamide]	100 to 1000 nM	1000 to 10000 nM	> 10000 nM	1000 to 10000 nM	> 10000 nM
Cc1cc(Nc2nc(N3C[C@@H](NC(=O)c4ccc(C5CC5)cc4F)CC[C@H]3C)cnc2C(N)=O)sn1 [Example D-80, 5-[(2R,5S)-5-(4-cyclopropyl-2-fluorobenzamido)-2-methylpiperidin-1-yl]-3-[(3-methyl-1,2-thiazol-5-yl)amino]pyrazine-2-carboxamide]	10 to 100 nM	100 to 1000 nM	> 10000 nM	100 to 1000 nM	1000 to 10000 nM
C[C@@H]1[C@H](NC(=O)c2ccc(C3CC3)cc2)CCCN1c1cnc(C(N)=O)c(Nc2ccc(N3CCN(C)CC3)cc2)n1 [Example D-81]	≤ 10 nM	10 to 100 nM	100 to 1000 nM	10 to 100 nM	10 to 100 nM
C[C@@H]1[C@H](NC(=O)c2ccc(C3CC3)cc2F)CCCN1c1cnc(C(N)=O)c(Nc2ccc(N3CCN(C)CC3)c(F)c2)n1 [Example D-82, 5-[(2R,3R)-3-(4-cyclopropyl-2-fluorobenzamido)-2-methylpiperidin-1-yl]-3-{[3-fluoro-4-(4-methylpiperazin-1-yl)phenyl]amino}pyrazine-2-carboxamide]	≤ 10 nM	10 to 100 nM	100 to 1000 nM	10 to 100 nM	10 to 100 nM
C[C@@H]1[C@H](NC(=O)c2ccc(C3CC3)cc2)CCCN1c1cnc(C(N)=O)c(Nc2ccc3nccn3c2)n1 [Example D-83, 5-[(2R,3R)-3-(4-cyclopropylbenzamido)-2-methylpiperidin-1-yl]-3-({imidazo[1,2-a]pyridin-6-yl}amino)pyrazine-2-carboxamide]	10 to 100 nM	1000 to 10000 nM	1000 to 10000 nM	100 to 1000 nM	10 to 100 nM
C[C@@H]1[C@H](NC(=O)c2ccc(N(C)C)cn2)CCCN1c1cnc(C(N)=O)c(Nc2cnn(C)c2)n1 [Example D-84, 5-[(2R,3R)-3-[5-(dimethylamino)pyridine-2-amido]-2-methylpiperidin-1-yl]-3-[(1-methyl-1H-pyrazol-4-yl)amino]pyrazine-2-carboxamide]	≤ 10 nM	100 to 1000 nM	100 to 1000 nM	10 to 100 nM	≤ 10 nM
C[C@@H]1[C@H](NC(=O)c2ccc(-c3ncccn3)cc2)CCCN1c1cnc(C(N)=O)c(Nc2cnn(C)c2)n1 [Example D-85, 3-[(1-methyl-1H-pyrazol-4-yl)amino]-5-[(2R,3R)-2-methyl-3-[4-(pyrimidin-2-yl)benzamido]piperidin-1-yl]pyrazine-2-carboxamide]	≤ 10 nM	100 to 1000 nM	100 to 1000 nM	100 to 1000 nM	≤ 10 nM
C[C@@H]1[C@H](NC(=O)c2cnc(C3CC3)nc2)CCCN1c1cnc(C(N)=O)c(Nc2cnn(C)c2)n1 [Example D-86, 5-[(2R,3R)-3-(2-cyclopropylpyrimidine-5-amido)-2-methylpiperidin-1-yl]-3-[(1-methyl-1H-pyrazol-4-yl)amino]pyrazine-2-carboxamide]	≤ 10 nM	10 to 100 nM	10 to 100 nM	10 to 100 nM	≤ 10 nM
C[C@@H]1[C@H](NC(=O)c2ccc(C(F)(F)F)cn2)CCCN1c1cnc(C(N)=O)c(Nc2cnn(C)c2)n1 [Example D-87, 3-[(1-methyl-1H-pyrazol-4-yl)amino]-5-[(2R,3R)-2-methyl-3-[5-(trifluoromethyl)pyridine-2-amido]piperidin-1-yl]pyrazine-2-carboxamide]	≤ 10 nM	100 to 1000 nM	100 to 1000 nM	10 to 100 nM	10 to 100 nM
C[C@@H]1[C@H](NC(=O)c2ccc(C(C)(C)C#N)cc2)CCCN1c1cnc(C(N)=O)c(Nc2cnn(C)c2)n1 [Example D-88, 5-[(2R,3R)-3-[4-(1-cyano-1-methylethyl)benzamido]-2-methylpiperidin-1-yl]-3-[(1-methyl-1H-pyrazol-4-yl)amino]pyrazine-2-carboxamide]	≤ 10 nM	100 to 1000 nM	100 to 1000 nM	10 to 100 nM	10 to 100 nM
